This is an account of results in patent US5041535A, “Antileukemic and immunostimulant peptides” (Richter Gedeon Vegyeszeti Gyar Rt., priority 1986, dated 1991).

In test [1] the test system is human K-562 erythroleukaemical cell-line. The test can be described thus: Inhibition of the proliferation of tumor cells (K-562). The test is classed as cell-based. As to conditions: 72nd hour after treatment, percentage of the control. As for the experimental part:
In the test human K-562 erythroleukaemical cell-line is used (Karolinska Institute, Stockholm). Incubation is carried out in a nutrient medium designated RPMI-1640 (manufactured by Flow, Great Britain) comprising 10% of foetal calf serum, at a temperature of 37° C., in a humidified incubator containing 3% of carbon dioxide, in plastic dishes. Every point of measurement corresponds to the average of the data measured in three dishes, each. At the beginning of the test the dilution amounts to 0.5×10^5 cells/ml. Treatment is carried out 24 hours after dilution in a manner that the medium is not changed after the treatment. The cells are counted for 96 hours after dilution every 24th hour wit the aid of a Buerker chamber.
Under the effect of the peptide in the 24th hour after treatment the cell number stagnates and later it increases to a very small extent. […] The tumor-cell division inhibiting effect of the new peptides is summarized in Table 1 (72 hours after treatment). The rate of inhibition is expressed in the percentage of the control. It clearly appears from the data of the Table that the tested peptides inhibit the proliferation of human K-562 erythroleukaemic cells.

For test [2], the system named is lymphocytes inhibited by Azathioprine. Nature of the test: E-rosetta test inhibited by Azathioprine. The test is classed as cell-based. On the procedure:
Inhibition of the proliferation of T-lymphocytes is tested in the E-rosetta test inhibited by Azathioprine [6-(1-methyl-4-nitroimidazole-5-yl-thio)-purine; Thymus 1, 195 (1980)].
To 200 μl of a healthy lymphocyte cell-suspension 500 μl/ml of Azathioprine and 200 μl of a separate dilution of the test compound in HBBS buffer (manufacturer: Flow, Great Britain) are added (concentration range: 10^-3 to […]). The mixture is incubated at a temperature of 37° C. in air containing 5% of carbon dioxide for 60 minutes, whereupon 200 μl of a 1% sheep erythrocyte suspension are added. The mixture thus-obtained is centrifuged at 1,000 r.p.m. for 5 minutes, the supernatant is removed by decanting and in the suspension the lymphocytes forming E-rosetta are counted under a microscope from at least 400 cells.
Under the effect of the peptides the E-rosetta forming activity of the lymphocytes inhibited by Azathioprine increases to different extent. […] It appears from the data of Table 2 that the tested peptides increase the E-rosetta forming capacity of inhibited lymphocytes, i.e. the peptides of the present invention show immunostimulant effect.

For test [3], the system named is antibody production inhibited by cyclophosphamide. The test can be described thus: Effect on antibody production in mice treated with cyclophosphamide. Conditions: cyclophosphamide 100 mg/kg i.p., titer on 6th day. It is filed as in vivo, CELP mice. On the procedure:
The effect on in vivo antibody production is tested on CELP mice treated with a 100 mg/kg body weight dose of cyclophosphamide {2-[bis-(2-chloroethyl)-amino]-tetrahydro-2H-1,3,2-oxaza -phosphorine-2-oxide; method: Z. Naturforsch. 35B, 1476 (1980)}. The mice are intraperitoneally immunized with a 1% sheep erythrocyte suspension previously washed three times with a 0.9% sodium chloride solution after 10 minutes of centrifuging at 2,500 r.p.m. Simultaneously with immunization carried out on the 0. day, the activity of the immune system is suppressed by means of treatment with a 100 mg/kg i.p. does of cyclophosphamide. On the 3rd day of the test the peptides are administered to the animals intraperitoneally in a dose of 5, 50 and occasionally 100 mg/kg respectively. On the 6th day of the test blood is taken retroorbitally from the mice and the anti-sheep erythrocyte titer of the serum is determined. […] The effect of the peptides is expressed as percentage of the relief of inhibition (G %).

The test system of test [4] is inflammation induced by oxozolone. Nature of the test: Dermatitis test induced with oxazolone. Conditions: 24th hour after treatment, ear weight increase. The test is classed as in vivo, CFLP mice. As for the experimental part: In this test a modified pharmacological model of D. P. Evans et al. [Br. J. Pharmac. 43, 403-488 (1971)] is used.
The abdominal skin of male CFLP mice weighing 20-22 g is painted after the removal of the hair with 0.1 ml of a 2% solution of oxazolon (4-ethoxymethyl-2-phenyl-oxazoline, manufacturer Sigma) in sunflower oil. On the right ear of the test animals 7 days after sensitization (painting) inflammatory reaction is induced with the aid of 10 μl of a 2% acetonous oxazolone solution and simultaneously the animals are treated with a 1 or 2 mg/kg, respectively, i.p. does of the test compound. The test compound is dissolved in a physiological sodium chloride solution in such a concentration that the active ingredient content corresponding to the dose should be dissolved in a volume of 0.5 ml/10 g animal body weight.
The antiinflammatory effect is determined as follows: the animals are sacrificed in the 24th hour after treatment, whereupon the right and left ears are cut off. The percentual weight increase of the right ear related to the left ear is characteristic of the rate of inflammation induced during the test, while the percentual reduction of weight increase of the treated animals related to the untreated control is proportional to the antiinflammatory effect. In Table 4 the reduction of weight increase (antiinflammatory effect) achieved by the test compounds is disclosed, as the percentage of the untreated control.

In the next test the test system is Lewis Lung Tumor (LLT). The test can be described thus: Tumor metastasis inhibiting effect. The test is classed as in vivo, C57 B1 mice. As to conditions: single 10 mg/kg i.p., 18th day. As for the experimental part: 20 g male C57 B1 mice divided into groups consisting of 5 animals each, are injected with a Lewis Lung Tumor (LLT) cell-suspension. The said cell-suspension is administered into the tail vein, in a dose of 10^5 cells/mouse. Twenty-four hours after the administration of the tumor-cells the animals are treated with a single 10 mg/kg i.p. dose of the test compound. On the 18th day following infection with the tumor the animals are sacrificed and the cancer noduli appearing in the lungs are counted under a stereomicroscope. Animals not treated with peptide serve as control. In Table 8 the results obtained with Glp-Lys-NH2 dipeptide amide are disclosed.

In test [5] the test system is peritoneal exsudatum cells (PEC). The test can be described thus: Effect on phagocytosis, in vivo. Further details: species or system CFLP mice. Conditions: 24th hour after treatment, control 179.7 ± 3.6. As for the experimental part: Male CFLP mice having a body of weight of 22-23 g are divided into four groups of 8-12 animals each. The animals of the test groups are treated with Glp-Lys-NH2 -mandelate for 2 days. The treatment is carried out by administering a 0.1, 1 or 10 mg/kg s.c. dose, respectively, of the active ingredient once a day, in the form of a solution in a physiological sodium chloride solution. In the 24th hour after the last treatment the yeast cell incorporating capacity of the peritoneal exsudatum cells (PEC) is determined. In the Table the x±S.E.M. data relate to the number of yeast cells incorporated into the 100 PEC cells.

In test [6] the test system is PEC cells. The test can be described thus: Phagocytosis inhibited by cyclophosphamide, simultaneously administered cyclophosphamide and peptide. The test is classed as in vivo, CFLP mice. Conditions: 2 days, CY alone 102.5 ± 4.8, control 186.3 ± 7.8. As for the experimental part:
(§1) Male CFLP mice weighing 22-23 g are divided into five groups of 8-12 animals each. The animals belonging to the test groups (all groups except the control one) are treated for two days once a day with a 80 mg/kg p.o. dose of cyclophosphamide and the animals of three of the said groups are treated simultaneously with the administration of cyclophosphamide with a 0.1, 1.0 and 10 mg/kg s.c. dose, respectively, of Glp-Lys-NH2 -mandelate dissolved in a physiological soidum chloride solution. On the 3rd day of the test the yeast cell incorporating capacity of the PEC cells is determined. The x±S.E.M. values disclosed in the Table stand for the number of yeast cells incorporated by the 100 PEC cells.

The subject of test [7] is PEC cells. Nature of the test: Phagocytosis inhibited by cyclophosphamide, non-simultaneously administered cyclophosphamide and peptide. The test is classed as in vivo, CFLP mice. Conditions: CY 80 mg/kg p.o., CY alone 112.1 ± 6.4, control 221 ± 9.4. On the procedure: as §1, with “cells. One proceeds as described in test a) except that the peptide is administered to the animals 6 hours after treatment with cyclophosphamide. The test is evaluated as described above.” for “cells.”

For the substance Glp-Lys-NH2 [Peptide 1], the “Inhibition of the proliferation of K-562 cells, inhibition (c %)” value in test [1] (peptide 1/ug/ml) is recorded as 20%; in test [1] (peptide 10/ug/ml) it was 42%. For the same substance, the “Relief of inhibition (R %) of E-rosetta forming activity” value turned out to be 33.0% in test [2] (peptide 10^-3 mole/l); 9.9% in test [2] (peptide 10^-5 mole/l); 36.6% in test [2] (peptide 10^-7 mole/l); 25.0% in test [2] (peptide 10^-9 mole/l); 10.0% in test [2] (peptide 10^-11 mole/l). Besides, the “Restoration of primary immune answer, G %” value is given as 123.8% in test [3] (peptide 5 mg/kg i.p. on 3rd day) and 133.3% in test [3] (peptide 50 mg/kg i.p. on 3rd day). Also, the results for the “Inhibition of inflammation induced by oxozolone, inhibition as % of control” value in test [4] (1 mg/kg i.p.) and in test [4] (2 mg/kg i.p.) were 62% and 61%, respectively. In addition, the “No. of metastases in the lungs” value came to 0 in the test with Lewis Lung Tumor (LLT) (treated animal No. 1, untreated control 15); 2 in the test on Lewis Lung Tumor (LLT) (treated animal No. 2, untreated control 20); 1 with Lewis Lung Tumor (LLT) (treated animal No. 3, untreated control 16); 2 in the test with Lewis Lung Tumor (LLT) (treated animal No. 4, untreated control 12); 5 with Lewis Lung Tumor (LLT) (treated animal No. 5, untreated control 11).
As to Glp-Lys-NH2 -mandelate, the “Phagocyte activity x ± S.E.M. (number of yeast cells incorporated into the 100 PEC cells)” value in test [5] (0.1 mg/kg s.c. once a day for 2 days) was found to be 182.3 ± 3.5; in test [5] (1.0 mg/kg s.c. once a day for 2 days), 209.3 ± 8.6; in test [5] (10 mg/kg s.c. once a day for 2 days), 244.8 ± 4.3. For the same substance, the “Phagocyte activity x ± S.E.M. (number of yeast cells incorporated by the 100 PEC cells)” value in the test on PEC cells [6] (CY 80 mg/kg p.o. + peptide 0.1 mg/kg s.c. simultaneously) was 241.7 ± 20.3; in the test on PEC cells [6] (CY 80 mg/kg p.o. + peptide 1.0 mg/kg s.c. simultaneously) it was 215.2 ± 21.5; in the test on PEC cells [6] (CY 80 mg/kg p.o. + peptide 10 mg/kg s.c. simultaneously), 164.4 ± 13.8; with PEC cells [7] (peptide 0.1 mg/kg s.c. 6 hours after CY) it was 226.5 ± 8.8; with PEC cells [7] (peptide 1.0 mg/kg s.c. 6 hours after CY), 252.2 ± 7.4; with PEC cells [7] (peptide 10 mg/kg s.c. 6 hours after CY), 257.3 ± 9.3.
